The values below come from PubChem BioAssay (NCI).

Test systems include SK-MEL-5 melanoma; DU-145 prostate; EKVX NSCLC; NCI-H226 lung; MDA-MB-435; SK-MEL-2 melanoma; HOP-92 NSCLC; NCI-H522 lung; SF-268 CNS; ACHN renal; SNB-75 CNS.
Common to all, as to assay: NCI-60 cell line screen, 48 h

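Cultured in 96-well plates, cells were exposed to test compound for 48 hours across five concentrations. TGI is the concentration that stops growth completely.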 A value given as a limit tells only on which side of the number the result lay.

Turning to `O=C1NC(N2CCCC(CO)C2)=N/C1=C\c1ccc(Cl)cc1` (stereo not drawn), the TGI in the assay on SK-MEL-5 melanoma, in the assay with DU-145 prostate, in the assay with EKVX NSCLC, in the assay on NCI-H226 lung, in the assay with MDA-MB-435 and in the assay with SK-MEL-2 melanoma was above 100 µM throughout. In addition, the TGI with HOP-92 NSCLC, in the assay with NCI-H522 lung, in the assay with SF-268 CNS, in the assay with ACHN renal and in the assay on SNB-75 CNS was above 100 µM each time.

`N=C(N)SCc1cccc2c(=O)cc(-c3ccccc3)oc12`: the TGI in the assay on SK-MEL-5 melanoma is 29.8 µM; in the assay on DU-145 prostate, 16.2 µM; in the assay on EKVX NSCLC, 37.9 µM; in the assay with NCI-H226 lung, 58 µM; with MDA-MB-435 it was 21.5 µM; in the assay on SK-MEL-2 melanoma, 25.2 µM. Further, the TGI in the assay with HOP-92 NSCLC was determined as 16.9 µM; in the assay on NCI-H522 lung it was 13.6 µM; with SF-268 CNS, 45.8 µM; in the assay on ACHN renal, 15.5 µM; in the assay with SNB-75 CNS, 19.4 µM.

With `O=C(c1ccc(Br)cc1)n1c2ccc(Br)cc2c2nc3ccccc3nc21`, the TGI in the assay on SK-MEL-5 melanoma, in the assay with DU-145 prostate, in the assay on EKVX NSCLC, in the assay with NCI-H226 lung, with MDA-MB-435 and with SK-MEL-2 melanoma was above 100 µM in each case. For the same compound, the TGI in the assay with HOP-92 NSCLC, in the assay with NCI-H522 lung, in the assay on SF-268 CNS, with ACHN renal and in the assay on SNB-75 CNS was above 100 µM throughout.

Turning to `COc1ccc(C(=O)/C=C/c2ccc(OCC(=O)N3CCN(c4ccccc4)CC3)cc2)cc1`, the TGI is above 85.1 µM with SK-MEL-5 melanoma; above 100 µM with DU-145 prostate; above 90.4 µM in the assay with EKVX NSCLC; above 100 µM in the assay on NCI-H226 lung; above 100 µM in the assay on MDA-MB-435; above 100 µM in the assay on SK-MEL-2 melanoma. Besides, the TGI in the assay with HOP-92 NSCLC was 51.3 µM; in the assay with NCI-H522 lung, above 45.8 µM; in the assay with SF-268 CNS, above 100 µM; with ACHN renal it was above 100 µM; in the assay with SNB-75 CNS, 62.5 µM.

`CCS(=O)(=O)CCn1cnc2c1c(=O)n(C)c(=O)n2C`: the TGI with SK-MEL-5 melanoma, in the assay on DU-145 prostate, in the assay on EKVX NSCLC, with NCI-H226 lung, with MDA-MB-435 and with SK-MEL-2 melanoma was above 100 µM each time. The TGI with HOP-92 NSCLC, with NCI-H522 lung, with SF-268 CNS, with ACHN renal and with SNB-75 CNS was above 100 µM each time.

As for `CN(C)C(=O)Oc1ccc(-c2cn3cc(NC(=O)c4ccccc4)ccc3n2)cc1`, the TGI was 74.1 µM in the assay on SK-MEL-5 melanoma; above 100 µM with DU-145 prostate; above 100 µM with EKVX NSCLC; above 100 µM in the assay on NCI-H226 lung; above 100 µM with MDA-MB-435; above 100 µM with SK-MEL-2 melanoma. The TGI in the assay with HOP-92 NSCLC, in the assay on NCI-H522 lung, in the assay with SF-268 CNS, in the assay on ACHN renal and in the assay on SNB-75 CNS was above 100 µM each time.

With `COc1cc(/C=C/c2cc(/C=C/c3ccc(O)c(OC)c3)oc(=O)c2)ccc1O`, the TGI is above 100 µM with SK-MEL-5 melanoma; 6.82 µM in the assay with DU-145 prostate; above 36.2 µM in the assay with EKVX NSCLC; 61.1 µM in the assay with NCI-H226 lung; 22.5 µM in the assay with MDA-MB-435; above 65.9 µM in the assay on SK-MEL-2 melanoma. Besides, the TGI was 32.6 µM in the assay on HOP-92 NSCLC; above 23.9 µM in the assay with NCI-H522 lung; above 39.7 µM with SF-268 CNS; 15.4 µM with ACHN renal; 4.61 µM with SNB-75 CNS.

Regarding `COc1ccc(Cc2nccc3cc(OC)c(OC)cc23)cc1OC`, the TGI is 99.3 µM in the assay with SK-MEL-5 melanoma; above 100 µM in the assay with DU-145 prostate; above 100 µM with EKVX NSCLC; above 100 µM in the assay on NCI-H226 lung; above 100 µM with MDA-MB-435; above 100 µM with SK-MEL-2 melanoma. For the same compound, the TGI with HOP-92 NSCLC, with NCI-H522 lung, in the assay on SF-268 CNS, in the assay with ACHN renal and with SNB-75 CNS was above 100 µM throughout.

As to `c1ccc(C[n+]2cccc(-c3cc4ccccc4[nH]3)c2)cc1`, the TGI with SK-MEL-5 melanoma was 23.8 µM; in the assay with DU-145 prostate, above 100 µM; in the assay with EKVX NSCLC, above 100 µM; in the assay with NCI-H226 lung, above 100 µM; in the assay on MDA-MB-435, 43.7 µM; in the assay on SK-MEL-2 melanoma, 32.8 µM. Besides, the TGI in the assay with HOP-92 NSCLC is 54 µM; in the assay on NCI-H522 lung, 53.9 µM; with SF-268 CNS it was above 100 µM; with ACHN renal, above 100 µM; in the assay with SNB-75 CNS, above 100 µM.

On to `S=c1sc2nc(Cl)nc(Cl)c2s1`, for which the TGI with SK-MEL-5 melanoma is 21.6 µM; in the assay with DU-145 prostate, 30.9 µM; with EKVX NSCLC, 31.8 µM; in the assay on NCI-H226 lung, 32.7 µM; in the assay with MDA-MB-435, 22.4 µM; with SK-MEL-2 melanoma, 23.8 µM. Moreover, the TGI in the assay on HOP-92 NSCLC is 17.4 µM; with NCI-H522 lung it was 25.2 µM; in the assay with SF-268 CNS it was 34.4 µM; in the assay with ACHN renal, 26.9 µM; in the assay on SNB-75 CNS it was 34.8 µM.

In the case of `CC(C)NCCC(O)c1cc2ccccc2o1` (stereo not drawn), the TGI with SK-MEL-5 melanoma, in the assay with DU-145 prostate, with EKVX NSCLC, with NCI-H226 lung, with MDA-MB-435 and with SK-MEL-2 melanoma was above 100 µM throughout. The TGI in the assay on HOP-92 NSCLC, in the assay with NCI-H522 lung, in the assay on SF-268 CNS, with ACHN renal and with SNB-75 CNS was above 100 µM each time.

Regarding `NC(=O)c1[nH]cnc1/N=N/SCC(N)C(=O)O` (stereo not drawn), the TGI with SK-MEL-5 melanoma, in the assay with DU-145 prostate, with EKVX NSCLC, with NCI-H226 lung, in the assay with MDA-MB-435 and in the assay on SK-MEL-2 melanoma was above 100 µM each time. The TGI in the assay with HOP-92 NSCLC, in the assay on NCI-H522 lung, in the assay with SF-268 CNS, in the assay on ACHN renal and in the assay with SNB-75 CNS was above 100 µM in each case.

With `CCc1c(Cc2cc(C)cc(C)c2)n2c(nc1=O)SCC2CBr` (stereo not drawn), the TGI with SK-MEL-5 melanoma, with DU-145 prostate, with EKVX NSCLC, with NCI-H226 lung, in the assay on MDA-MB-435 and with SK-MEL-2 melanoma was above 50 µM in each case. The TGI in the assay with HOP-92 NSCLC, in the assay with NCI-H522 lung, with SF-268 CNS, in the assay with ACHN renal and with SNB-75 CNS was above 50 µM each time.
